Source: patent publication US7262151B2, “Methods and compositions for production of lipo-chito oligosaccharides by rhizobacteria” (McGill University, priority 2001, dated 2007)
Where two headings read alike, the source gives them in different places.

Experiments:
Assay type in all cases: cell-based
[1] = system: nod genes in Bradyrhizobium japonicum strain USDA3; conditions: for inhibitory or inducing activity in combinations (β-galactosidase assay): 25 and 50 μM with JA, MeJA and genistein (5 μM), FIGS. 3, 4, and 5; for nod gene induction (β-galactosidase activity): USDA3 (GG4), control 362 ± 25; for induction of nod genes (β-galactosidase activity vs control without inducer), in words: all concentrations, FIG. 1; for expression of nod genes (β-galactosidase assay), in words: 5-100 μM tested, FIG. 6; for nod gene induction at optimum concentration compared with optimum JA and MeJA concentrations / optimum concentration for nod gene induction: USDA3, β-galactosidase assay
Method: Bradyrhizobium japonicum strain USDA3, harboring plasmid GG4, was used in the experiment. Plasmid GG4 contains a translational fusion between B. japonicum nod Y open-reading frame and lac Z of Escherichia coli.
(§1) Bacteria were grown in yeast extract mannitol (YEM) medium (mannitol 10.0 g, K2HPO4 0.5 g, MgSO4.7H2O 0.2 g, NaCl 0.1 g, and yeast extract 0.4 g dissolved in 1000 mL of dd H2O). In order to ensure the maintenance of the strains, tetracycline was added to the bacterial cultures at a concentration of 20 mg 1^−1. One hundred mL cultures of each strain, in 250 mL flasks, were shaken at 150 rev min^−1 at 30° C. for 3-5 days and then subcultured into 400 mL of fresh medium in 1000 mL flasks. The cultures were incubated until the OD620 reached 0.2-0.3. The cultures were then divided into 5 mL tubes (sterilized).
(§2) Stock solutions of various inducers: genistein, salicylic acid and acetylsalicylic acid made in methanol and linolenic, linoleic, and jasmonic acid and methyl jasmonate were made in ethanol, and an appropriate amount of these inducers was added into the tubes before addition of bacterial culture. In the tubes, the final concentration of all the inducers was maintained as 5, 10, 25, 50 and 100 μM. Tubes were collected after 18 h of incubation and stored at −20° C. until the β-galactosidase activity was measured. Genistein (4′,5,7, trihydroxyisoflavone, purity 98%,), linolenic acid (9,12,15-Octadecatrienoic acid, purity 99%), linoleic acid (cis-9, cis-12-Octadecadienoic acid, purity 99%), jasmonic acid (±Jasmonic acid, C12H18O3) and salicylic acid (2-hydroxybenzoic acid, purity 99.0%) were obtained from Sigma, while acetylsalicylic acid (C9H8O4, 99% purity) was obtained from Acros and methyl jasmonate (95% purity) was obtained from Aldrich Chemical Company, Inc.
(§3) β-galactosidase is an enzyme which hydrolyzes β-D-galactosides. The activity of this enzyme can easily be measured with colorless substrates, which upon hydrolysis produce colored products. O-nitrophenyl-β-galactoside (ONPG) is a colorless compound and is converted to galactose and O-nitrophenol in the presence of β-galactosidase. The O-nitrophenol is yellow and can be measured by its absorption at 420 nm. In the present study, nod gene expression was indirectly measured by β-galactosidase activity following the method of Miller (1972) as modified by Stachel et al, (1985). Briefly, 0.5 mL culture was mixed with 2×Z buffer (Na2HPO4.7H2O, 16.1 g, NaH2PO4.H2O, 5.5 g, KCl 0.75 g, MgSO4.7H2O 0.246 g, β-mercaptoethanol 2.7 g, pH 7.0 dissolved in 500 mL water) and 40 μL toluene and vortexed for 10 seconds. The culture was then incubated in a water bath at 37° C. for 30 minutes and then 0.2 mL of O-nitrophenyl β-D-galactopyranoside (ONPG) was added at a concentration of 4 mg mL^−1. The cultures were incubated again in the water bath until the color of the culture changed. The reaction time was recorded and the reaction was stopped with 1M Na2CO3. After centrifugation at 10,000 rpm for 4 minutes, spectrophotometric reading at OD420 and OD600 were taken and the β-galactosidase activity was measured (β-galactosidase activity=OD420*1000/OD600*T*V, where T is the reaction time and V is the volume of the bacterial culture used for enzyme assay).
The experiment was designed in a randomized complete block design (RCBD) with three replicates. […] Data are shown from the second experiment. Statistical analysis of the data was done with analysis of variance using the Statistical Analysis System computer package (SAS Institute, 1988). Comparisons among treatment means were made with an ANOVA protected LSD at the 0.05 level of statistical significance.

[2] = system: nod genes in Bradyrhizobium japonicum strain USDA121; test: nod gene induction, β-galactosidase assay, strain USDA121 (GG3); conditions: control 476.8 ± 86.6
Method: as §1, §2, §3
(§4) The effect of 0-100 μM concentrations of each of acetylsalicylic acid, salicylic acid, jasmonic acid, methyl jasmonate, and genistein, on induction of nod gene expression in Bradyrhizobium japonicum strains USDA31, USDA76, USDA121, and USDA3, was evaluated in accordance with the β-galactosidase assay of Experiment 1 in Example 1 above.

[3] = system: nod genes in Bradyrhizobium japonicum strain USDA76; test: nod gene induction, β-galactosidase assay, strain USDA 76 (GG2); conditions: control 411.8 ± 26.8
Method: as §1, §2, §3, §4

[4] = system: nod genes in Bradyrhizobium japonicum strain USDA31; test: nod gene induction, β-galactosidase assay, strain USDA31 (GG1)
Method: as §1, §2, §3, §4

[5] = 5 μM, control without inducer 522.6 ± 15.9

Row | Structure (SMILES) | inhibitory or inducing activity in combinations (β-galactosidase assay) [1] | nod gene induction (β-galactosidase activity) ([1]; 5 μM) | nod gene induction (β-galactosidase activity) ([1]; 10 μM) | nod gene induction (β-galactosidase activity) ([1]; 25 μM) | nod gene induction (β-galactosidase activity) ([1]; 50 μM) | nod gene induction (β-galactosidase activity) ([1]; 100 μM) | induction of nod genes (β-galactosidase activity vs control without inducer), in words [1] | nod gene induction (β-galactosidase activity) ([2]; 5 μM) | nod gene induction (β-galactosidase activity) ([2]; 10 μM) | nod gene induction (β-galactosidase activity) ([2]; 25 μM) | nod gene induction (β-galactosidase activity) ([2]; 50 μM) | nod gene induction (β-galactosidase activity) ([2]; 100 μM) | nod gene induction (β-galactosidase activity) ([3]; 5 μM) | nod gene induction (β-galactosidase activity) ([3]; 10 μM) | nod gene induction (β-galactosidase activity) ([3]; 25 μM) | nod gene induction (β-galactosidase activity) ([3]; 50 μM) | nod gene induction (β-galactosidase activity) ([3]; 100 μM) | nod gene induction (β-galactosidase activity) [4, 5] | nod gene induction (β-galactosidase activity) ([4]; 10 μM, control 522.6 ± 15.9) | nod gene induction (β-galactosidase activity) ([4]; 25 μM, control 522.6 ± 15.9) | also measured
1 | CC(=O)Oc1ccccc1C(=O)O [ASA, acetylsalicylic acid] | did not show inhibitory or inducing activity | 396 ± 14.7 | 372 ± 16 | 382 ± 16 | 464 ± 7 | 527 ± 36 | did not show any activity | 422.6 ± 64.9 | 425 ± 39.4 | 479.9 ± 88.6 | 445.4 ± 99 | 325.6 ± 58.8 | 363.2 ± 34.1 | 341 ± 21.1 | 418.8 ± 59.5 | 376.2 ± 37.2 | 413.1 ± 85.5 | 636.5 ± 66.9 | 563.3 ± 37.9 | 719.5 ± 75.2 | nod gene induction (β-galactosidase activity) ([4]; 50 μM, control 522.6 ± 15.9): 676.6 ± 85.8; nod gene induction (β-galactosidase activity) ([4]; 100 μM, control 522.6 ± 15.9): 384.8 ± 34.4
2 | O=C(O)c1ccccc1O [SA, 2-hydroxybenzoic acid] | did not show inhibitory or inducing activity | 398 ± 13 | 402 ± 33 | 414 ± 17 | 435 ± 26 | 515 ± 583 | did not show any activity | 404.1 ± 62.5 | 472.7 ± 54.3 | 435.8 ± 69.2 | 434.2 ± 26.3 | 369.8 ± 114.9 | 562.2 ± 26.6 | 411.8 ± 75.3 | 473 ± 58.3 | 464.6 ± 36.2 | 430.7 ± 55.3 | 587 ± 66.6 | 536.4 ± 40.1 | 522.4 ± 65.3 | nod gene induction (β-galactosidase activity) ([4]; 50 μM, control 522.6 ± 15.9): 476.1 ± 28.4; nod gene induction (β-galactosidase activity) ([4]; 100 μM, control 522.6 ± 15.9): 519.3 ± 43.5
3 | CCCCC/C=C\C/C=C\CCCCCCCC(=O)O [linoleic acid, (Z,Z)-9,12-Octadecadienoic acid] |  |  |  |  |  |  |  |  |  |  |  |  |  |  |  |  |  |  |  |  | expression of nod genes (β-galactosidase assay), in words [1]: induced the expression of nod genes; nod gene induction at optimum concentration compared with optimum JA and MeJA concentrations [1]: lower; optimum concentration for nod gene induction [1]: 50 µM
4 | CC/C=C\C/C=C\C/C=C\CCCCCCCC(=O)O [linolenic acid, (Z,Z,Z)-9,12,15-Octadecatrienoic acid] |  |  |  |  |  |  |  |  |  |  |  |  |  |  |  |  |  |  |  |  | expression of nod genes (β-galactosidase assay), in words [1]: induced the expression of nod genes; nod gene induction at optimum concentration compared with optimum JA and MeJA concentrations [1]: lower; optimum concentration for nod gene induction [1]: 50 µM
